Assay results taken from US11273172B2, “Synergistic combination of oligonucleotides and chemotherapeutic for treating cancer” (THE BOARD OF TRUSTEES OF THE UNIVERSITY OF ILLINOIS, priority 2017, dated 2022).
Several values for one entry are separate records, joined by “and”; a condition that tells them apart may be missing. Identical values can stand only once.

Assays:
Assay in all cases: MTT cell death assay, chemotherapeutic with and without MADD siRNA knockdown
Format in all cases: cell-based
H2227 lung cancer cells = settings: siRNA 10 nM
Description: (§1) Cells are cultured and maintained at 37° C. in a humidified atmosphere containing 5% CO2 as described above. On Day 0, Cells are seeded in […] tissue culture dishes (Corning; Cat Number: 353003) to attain 60-70% confluence. In parallel, cells are also seeded in one 96-well plate (Corning; Cat number: 353072) for analysis of survival before reseeding. After 12-18 hours (Day 1), cells are transfected with Scramble or MADD siRNA at 10 nM concentration. The sequences of siRNAs (double-stranded) used are:
(§2) On Day 4, when cells are properly adhered and retained their shape in 96-well plates, drugs are added. All drugs are diluted in complete media on the same day prior to the addition to the cells. In untreated cells, media is replaced with complete media. Two hundred μl volume of media (with or without drugs) is used for the drug treatment assay. Plates are incubated 24 hours, 48 hours and 72 hours at 37° C. in humidified CO2 incubator.
(§3) An MTT assay is performed to determine relative survival after drug treatment as described above. MTT (3-[4,5-Dimethylthiazol-2-yl]-2,5-diphenyltetrazolium bromide; Thiazolyl blue) is purchased from Sigma Aldrich (Cat number: M5655). MTT is dissolved in sterile DPBS at the concentration of 5 mg/ml and filtered through […] syringe filter (Corning; Cat number: 431220). Ten μl of MTT solution is added per well of 96-well plate. Plates are incubated for 2 hours at 37° C. in the humidified CO2 incubator. After 2 hours, media is aspirated using vacuum inside the biosafety hood. Purple colored crystals formed in viable cells are dissolved by adding 100 μl of Dimethyl sulfoxide (Thermo Fisher Scientific; Cat number D128-500) Plates are kept on shaker for 10 minutes for compete dissolution of crystals and absorbance is recorded at 595 nm using Bio-Rad iMark microplate reader. Data is analyzed in MICROSOFT EXCEL® software. Relative survival is calculated with respect to absorbance of control (untreated cells) to determine the effect of transfection as well as combination treatment.
(§4) Each data set takes into account any spontaneous cell death which is observed upon transfection with Scramble siRNA; the amount of spontaneous cell death from Scramble siRNA transfection (baseline) is subtracted from the amount of cell death observed in each siRNA transfection reaction to yield a Net Percent (Net %) cell death after accounting for Scrambled siRNA-induced cell death.
as §1, with “(double stranded)” for “(double-stranded)”
as §2, with “added. Doxorubicin was added at a working concentration of 5.0 nM, 9.375 nM, 0.075 μM, 0.25 μM, 0.5 μM, and 0.8 μM.” for “added.”
(§5) An MTT assay is performed to determine relative survival after drug treatment as described above. MTT (3-[4,5-Dimethylthiazol-2-yl]-2,5-diphenyltetrazolium bromide; Thiazolyl blue) is purchased from Sigma Aldrich (Cat number: M5655). MTT is dissolved in sterile DPBS at the concentration of 5 mg/ml and filtered through […] syringe filter (Corning; Cat number: 431220). Ten μl of MTT solution is added per well of 96-well plate. Plates are incubated for 2 hours at 37° C. in the humidified CO2 incubator. […]

[1] = system: K562 chronic myelogenous leukemia cells; settings: siRNA 10 nM
Description: as §1, §2, §3, §4
as §1, with “(double stranded)” for “(double-stranded)”
as §2, with “added. Doxorubicin was added at a working concentration of 5.0 nM, 9.375 nM, 0.075 μM, 0.25 μM, 0.5 μM, and 0.8 μM.” for “added.”
as §5

[2] = system: SU.86.86 pancreatic cancer cells; settings: siRNA 10 nM
Description: as §1, §2, §3, §4
as §1, with “(double stranded)” for “(double-stranded)”
as §2, with “added. Doxorubicin was added at a working concentration of 5.0 nM, 9.375 nM, 0.075 μM, 0.25 μM, 0.5 μM, and 0.8 μM.” for “added.”
as §5

[3] = system: CFPAC-1 pancreatic cancer cells; settings: siRNA 10 nM, 72 hours post TRAIL treatment
Description: as §1, with “(double stranded)” for “(double-stranded)”
as §2, with “24 h,” for “24 hours,”, “48 h” for “48 hours”
as §3, §4

[4] = system: HCT116 colon cancer cells; settings: TRAIL 50 ng/ml, siRNA 10 nM, 48 hours post TRAIL treatment
Description: as §1, with “(double stranded)” for “(double-stranded)”
as §2, with “24 h,” for “24 hours,”, “48 h” for “48 hours”
as §3, §4

[5] = system: SKOV3 ovarian cancer cells; settings: TRAIL 50 ng/ml, siRNA 10 nM, 48 hours post TRAIL treatment
Description: as §1, with “(double stranded)” for “(double-stranded)”
as §2, with “24 h,” for “24 hours,”, “48 h” for “48 hours”
as §3, §4

[6] = Doxorubicin 9.375 nM, 48 hours post Doxorubicin treatment
[7] = Gemcitabine 25 nM, 48 hours post Gemcitabine treatment
[8] = Sorafinib 3 μM, 48 hours post Sorafinib treatment
[9] = Doxorubicin 0.25 μM, 72 hours post Doxorubicin treatment
[10] = Doxorubicin 0.5 μM, 48 hours post Doxorubicin treatment
[11] = Sorafinib 0.3125 μM, 72 hours post Sorafinib treatment
[12] = Sorafinib 1.25 μM, 48 hours post Sorafinib treatment
[13] = TRAIL 6.25 ng/ml, 72 hours post TRAIL treatment
[14] = TRAIL 12.5 ng/ml, 48 hours post TRAIL treatment
[15] = Doxorubicin 5 nM, 24 hours post Doxorubicin treatment
[16] = Sorafinib 1.25 μM, 72 hours post-Sorafinib treatment
[17] = Sorafinib 5 μM, 24 hours post Sorafinib treatment

Scrambled siRNA: non-specific Scramble siRNA, negative control; SEQ ID NO: 5, 5′-UUGCUAAGCGUCGGUCAAUTT-3′ (chemistry not given here)
Net % cell death after accounting for Scrambled siRNA (H2227 lung cancer cells; [6]): 28 − 28 = 0% | Observed % Cell death (H2227 lung cancer cells; [6]): 28% | Net % cell death after accounting for Scrambled siRNA (H2227 lung cancer cells; [7]): 28 − 28 = 0% | Observed % Cell death (H2227 lung cancer cells; [7]): 28% | Net % cell death after accounting for Scrambled siRNA (H2227 lung cancer cells; [8]): 28 − 28 = 0% | Observed % Cell death (H2227 lung cancer cells; [8]): 28% | Net % cell death after accounting for Scrambled siRNA [1, 9]: 12 − 12 = 0% | Observed % Cell death [1, 9]: 12% | Net % cell death after accounting for Scrambled siRNA [1, 10]: 49 − 49 = 0% | Observed % Cell death [1, 10]: 49% | Net % cell death after accounting for Scrambled siRNA [1, 11]: 12 − 12 = 0% | Observed % Cell death [1, 11]: 12% | Net % cell death after accounting for Scrambled siRNA [1, 12]: 49 − 49 = 0% | Observed % Cell death [1, 12]: 49% | Net % cell death after accounting for Scrambled siRNA [1, 13]: 12 − 12 = 0% | Observed % Cell death [1, 13]: 12% | Net % cell death after accounting for Scrambled siRNA [1, 14]: 49 − 49 = 0% | Observed % Cell death [1, 14]: 49% | Net % cell death after accounting for Scrambled siRNA [2, 15]: 11 − 11 = 0% | Observed % Cell death [2, 15]: 11% | Net % cell death after accounting for Scrambled siRNA [2, 16]: 28 − 28 = 0% | Observed % Cell death [2, 16]: 28% | Net % cell death after accounting for Scrambled siRNA [2, 17]: 11 − 11 = 0% | Observed % Cell death [2, 17]: 11% | Net % cell death after accounting for Scrambled siRNA ([3]; TRAIL 6.25 ng/ml): 17 − 17 = 0% | Observed % Cell death ([3]; TRAIL 6.25 ng/ml): 0% | Net % cell death after accounting for Scrambled siRNA ([3]; TRAIL 12.5 ng/ml): 0 − 0 = 0% | Observed % Cell death ([3]; TRAIL 12.5 ng/ml): 0% | Net % cell death after accounting for Scrambled siRNA [4]: 27 − 27 = 0% | Observed % Cell death [4]: 27% | Net % cell death after accounting for Scrambled siRNA [5]: 9 − 9 = 0% | Observed % Cell death [5]: 9%

CNC(=O)c1cc(Oc2ccc(NC(=O)Nc3ccc(Cl)c(C(F)(F)F)c3)cc2)ccn1 [Sorafinib]
Net % cell death after accounting for Scrambled siRNA (H2227 lung cancer cells; [8]): 18% | Observed % Cell death (H2227 lung cancer cells; [8]): 18% | Net % cell death after accounting for Scrambled siRNA [1, 11]: 0% | Observed % Cell death [1, 11]: 0% | Net % cell death after accounting for Scrambled siRNA [1, 12]: 0% | Observed % Cell death [1, 12]: 0% | Net % cell death after accounting for Scrambled siRNA [2, 16]: 0% | Observed % Cell death [2, 16]: 0% | Net % cell death after accounting for Scrambled siRNA [2, 17]: 17% | Observed % Cell death [2, 17]: 17%

MADD siRNA: siRNA targeting exon 13L of the MADD splice variant of the IG20 gene; SEQ ID NO: 4, 5′-GAUUGUCAUAGAUUCGCCGTT-3′ (chemistry not given here)
Observed % Cell death (H2227 lung cancer cells; [6]): 35% | Observed % Cell death (H2227 lung cancer cells; [7]): 35% | Observed % Cell death (H2227 lung cancer cells; [8]): 35% | Net % cell death after accounting for Scrambled siRNA [1, 9]: 47% and 59 − 12 = 47% | Observed % Cell death [1, 9]: 59% | Observed % Cell death [1, 10]: 53% | Net % cell death after accounting for Scrambled siRNA [1, 11]: 47% and 59 − 12 = 47% | Observed % Cell death [1, 11]: 59% | Observed % Cell death [1, 12]: 53% | Net % cell death after accounting for Scrambled siRNA [1, 13]: 47% and 59 − 12 = 47% | Observed % Cell death [1, 13]: 59% | Observed % Cell death [1, 14]: 53% | Net % cell death after accounting for Scrambled siRNA [2, 15]: 0% and 9 − 11 = 0% | Observed % Cell death [2, 15]: 9% | Observed % Cell death [2, 16]: 41% | Net % cell death after accounting for Scrambled siRNA [2, 17]: 0% and 9 − 11 = 0% | Observed % Cell death [2, 17]: 9% | Net % cell death after accounting for Scrambled siRNA ([3]; TRAIL 6.25 ng/ml): 53% and 53 − 0 = 53% | Observed % Cell death ([3]; TRAIL 6.25 ng/ml): 53% | Net % cell death after accounting for Scrambled siRNA ([3]; TRAIL 12.5 ng/ml): 53% and 53 − 0 = 53% | Observed % Cell death ([3]; TRAIL 12.5 ng/ml): 53% | Observed % Cell death [4]: 43% | Net % cell death after accounting for Scrambled siRNA [5]: 29% and 38 − 9 = 29% | Observed % Cell death [5]: 38%

B1: TRAIL: cytotoxic protein which induces apoptosis in tumor cells, but not in normal cells (protein, UniProt P50591 1-281, looked up)
Tumor necrosis factor ligand …: MAMMEVQGGPSLGQTCVLIVIFTVLLQSLCVAVTYVYFTNELKQMQDKYSKSGIACFLKEDDSYWDPNDEESMNSPCWQVKWQLRQLVRKMILRTSEETISTVQEKQQNISPLVRERGPQRVAAHITGTRGRSNTLSSPNSKNEKALGRKINSWESSRSGHSFLSNLHLRNGELVIHEKGFYYIYSQTYFRFQEEIKENTKNDKQMVQYIYKYTSYPDPILLMKSARNSCWSKDAEYGLYSIYQGGIFELKENDRIFVSVTNEHLIDMDHEASFFGAFLVG
Net % cell death after accounting for Scrambled siRNA [1, 13]: 0% | Observed % Cell death [1, 13]: 0% | Net % cell death after accounting for Scrambled siRNA [1, 14]: 0% | Observed % Cell death [1, 14]: 0% | Net % cell death after accounting for Scrambled siRNA ([3]; TRAIL 6.25 ng/ml): 30% | Observed % Cell death ([3]; TRAIL 6.25 ng/ml): 30% | Net % cell death after accounting for Scrambled siRNA ([3]; TRAIL 12.5 ng/ml): 8% | Observed % Cell death ([3]; TRAIL 12.5 ng/ml): 8% | Net % cell death after accounting for Scrambled siRNA [4]: 27% | Observed % Cell death [4]: 27% | Net % cell death after accounting for Scrambled siRNA [5]: 13% | Observed % Cell death [5]: 13%
